Data reported in patent US20240294471A1, “ROS-RESPONSIVE CAPTOPRIL-CINNAMALDEHYDE PRODRUGS AND COMPOSITIONS AND METHODS THEREOF” (The University of Hong Kong, priority 2021, published 2024).

Key:
[1] = ROS-responsiveness: HPLC monitoring of CAPT-CA degradation in the presence of H2O2; assay type: physicochemical; conditions: CAPT-CA 160 μM, H2O2 40 mM
Procedure: HPLC spectra of CAPT, CA, CAPT-CA prodrug, and the degradation of CAPT-CA (160 μM) in the presence of H2O2 (40 mM) for different times were obtained. A C18 column was used. The mobile phase A was acetonitrile containing 0.1% TFA and mobile phase B was water containing 0.1% TFA. The elution procedure was shown as below: 0-5 min: 98% B→98% B; 5-15 min: 98% B→40% B; 15-17 min: 40% B→40% B. The flow rate was 1.5 mL/min. The detection wavelength was 220 nm.
To evaluate the ROS-responsiveness of CAPT-CA, high performance liquid chromatography (HPLC) has been employed to monitor the release of CAPT and CA after incubation of CAPT-CA with a ROS reagent (hydrogen peroxide, H2O2). The retention time of free CAPT, free CA and CAPT-CA was at 10.138 min, 13.275 min, 14.283 min, respectively.

[2] = test system: LPS-stimulated Raw 264.7 cells; assay: NO generation (nitrite in culture supernatant, Griess reagent); assay type: cell-based; conditions: Raw264.7 cells, LPS 10 μg/mL, 24 h, dose-dependent, FIG. 2
Procedure: Nitrite levels, an index of cellular NO production, in culture supernatants of Raw 264.7 cells were determined using a modified Griess reagent. Briefly, Raw 264.7 cells were seeded in 24-well plates. After a 24 h incubation, prodrugs were added to the cells at different concentrations and incubated for 1 h, and then the cells were treated with or without LPS (10 μg/mL) for another 24 h. The supernatant was mixed with an equal volume of Griess reagent and incubated at room temperature for 15 min. The absorbance at 540 nm was measured. Three replicate wells were used in this experiment.

[3] = test system: LPS-stimulated Raw264.7 cells; assay: Protein levels of TNF-α, IL-1β and IL-6 by ELISA; assay type: cell-based; conditions: supernatant, 24 h, dose dependent, FIGS. 3A-3C
Procedure: The protein levels of TNF-α, IL-1β and IL-6 were determined by ELISA. Briefly, Raw 264.7 cells were seeded in 24-well plates. After a 24 h incubation, prodrugs were added to the cells at different concentrations and incubated for 1 h, and then the cells were treated with or without LPS (10 μg/mL) for another 24 h. The supernatants were collected for determination of protein levels according to the ELISA kit's instruction. Three replicate wells were used in this experiment.

[4] = test system: LPS-stimulated Raw264.7 cells; assay: mRNA levels of proinflammatory cytokines by qRT-PCR; assay type: cell-based; conditions: 24 h, dose dependent, FIGS. 4A-4C
Procedure: […] Briefly, Raw 264.7 cells were seeded in 12-well plates. After a 24 h incubation, prodrugs were added to the cells at different concentrations and incubated for 1 h, and then the cells were treated with or without LPS (10 μg/mL) for another 24 h. qRT-PCR experiments were measured according to the manufacturer's instruction. Three replicate wells were used in this experiment.

[5] = test system: Raw 264.7 cells; assay: Cytotoxicity test (MTT assay); assay type: cell-based; conditions: Raw264.7 cells, 24 h, with or without LPS (10 μg/mL), tested concentration range, FIG. 1
Procedure: The effect of the prodrug on the viability of Raw 264.7 cells was determined using the MTT assay. Briefly, Raw 264.7 cells were seeded in 24-well plates. After a 24 h incubation, prodrugs were added to the cells at different concentrations and incubated for 1 h, and then, the cells were treated with or without LPS (10 μg/mL) for another 24 h. Next, 50 μL of MTT solution (5 mg/mL) were added to each well and the cells were incubated for 3 h at 37° C. Then, 1 mL of DMSO were added to dissolve the MTT-formazan crystal. The absorbance at 570 nm and 630 nm were measured. Three replicate wells were used in this experiment.

CC(CSC(/C=C/c1ccccc1)SCC(C)C(=O)N1CCCC1C(=O)O)C(=O)N1CCCC1C(=O)O (stereo not drawn) [CAPT-CA]
prodrug peak in HPLC after incubation with H2O2 (release of free CA and CAPT) ([1]; 4 h): prodrug peak decreases
prodrug peak in HPLC after incubation with H2O2 ([1]; 22 h): almost disappeared
NO generation resulting from LPS stimulation [2]: significantly suppressed
protein levels of the cytokines (TNF-α, IL-1β, IL-6) [3]: significantly down-regulates
mRNA levels of the cytokines (TNF-α, IL-6, IL-1β) [4]: significantly down-regulates
cytotoxicity of the prodrug [5]: minimal
